For 22 compounds, Ki results are on record in patent US10358435B2, “Triazolyl pyrimidinone compounds as PDE2 inhibitors” (Merck Sharp & Dohme Corp., priority 2015, dated 2019).

For experiment [1], the target named is human PDE2A1 (Homo sapiens (Human), UniProt O00408). Description: IMAP fluorescence polarization assay, human PDE2A1 (PDE selectivity panel). The settings on record: FAM cAMP 50 nM with 1000 nM cGMP. It is filed as biochemical. The gist of the method: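 GST-tagged human PDE2A1 from insect cells; enzyme set to ~20% conversion of 50 nM FAM-cAMP with 1000 nM cGMP, 60 min at room temperature in pH 7.2 Tris/MgCl2/DTT buffer, ten 3-fold compound dilutions. IMAP FP read, apparent Ki derived using apparent KM 10,000 nM.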

Experiment [2] deals with Rhesus PDE2A3 (Macaca mulatta, UniProt B3VTJ2). Description: IMAP fluorescence polarization assay, rhesus PDE2A3 lysate from transfected AD293 cells. Type of experiment: biochemical, rhesus macaque. The settings on record: FAM-labeled cAMP 50 nM, activator cGMP 1 uM; read-out: Rhesus PDE2 Ki. The method, then:
The activity of the compounds in accordance with the present invention as PDE2 inhibitors may be readily determined using a fluorescence polarization (FP) methodology (Huang, W., et al., J. Biomol Screen, 2002, 7: 215).
In a typical experiment the PDE2 inhibitory activity of the compounds of the present invention was determined in accordance with the following experimental method. Rhesus PDE2A3 was amplified from rhesus macaque brain cDNA (Biochain Institute, Hayward, Calif.) using primers based on human PDE2A sequence (accession NM_002599.3) where the forward primer containing a Kozak consensus was 5′-[…]-3′ and the reverse primer was 5′-[…]-3′. Amplification with Easy-A High-Fidelity PCR cloning enzyme (Stratagene, La Jolla, Calif.) was 95° C. for 2 minutes followed by thirty three cycles of 95° C. for 40 seconds, 52° C. for 30 seconds, and 72° C. for 2 minutes 48 seconds. Final extension was 72° C. for 7 minutes. The PCR product was TA cloned into pcDNA3.3-TOPO (Invitrogen, Carlsbad, Calif.) according to standard protocol. A consensus sequence was developed from multiple clones and then deposited into GenBank (EU812167). AD293 cells (Stratagene, La Jolla, Calif.) with 70-80% confluency were transiently transfected with rhesus PDE2A3/pcDNA3.3-TOPO using Lipofectamine 2000 according to manufacturer specifications (Invitrogen, Carlsbad, Calif.). Cells were harvested 48 hours post-transfection and lysed by sonication (setting 3, 10×5 sec pulses) in a buffer containing 20 mM HEPES pH 7.4, 1 mM EDTA and Complete Protease Inhibitor Cocktail Tablets (Roche, Indianapolis, Ind.). Lysate was collected by centrifugation at 75,000×g for 20 minutes at 4° C. and supernatant utilized for evaluation of PDE2 activity. The fluorescence polarization assay for cyclic nucleotide phosphodiesterases was performed using an IMAP® FP kit supplied by Molecular Devices, Sunnyvale, Calif. (product # R8139). […] Assays were performed at room temperature in 384-well microtiter plates with an incubation volume of 20.2 μL. Solutions of test compounds were prepared in DMSO and serially diluted with DMSO to yield 8 μL of each of 10 solutions differing by 3-fold in concentration, at 32 serial dilutions per plate. […] 0% of inhibition is determined by using DMSO (1% final concentrations).
A Labcyte Echo 555 (Labcyte, Sunnyvale, Calif.) is used to dispense 200 nL from each well of the titration plate to the 384 well assay plate. Ten microliters of a solution of enzyme (1/2000 final dilution from aliquots; sufficient to produce 20% substrate conversion) was added to the assay plate. Next 10 uL of a separate solution of the substrate FAM-labeled cAMP (50 nM final concentration product # R7506 from Molecular Devices) and the activator cGMP (1 uM final concentration), prepared in the assay buffer (10 mM Tris HCl, pH 7.2, 10 mM MgCl2, 0.05% NaN3 0.01% Tween-20, and 1 mM DTT) was added to the assay plate and shaken to mix. The reaction is allowed to proceed at room temperature for 60 minutes. A binding solution is then made from the kit components, comprised of 80% Solution A, 20% Solution B and binding reagent at a volume of 1/600 the total binding solution. The enzymatic reaction is stopped by addition of 60 μL of the binding solution to each well of the assay plates and the plates are sealed and shaken for 30 seconds. The plate was incubated at room temperature for at least one hour prior to determining the fluorescence polarization (FP). The parallel and perpendicular fluorescence of each well of the plate was measured using a Tecan Genios Pro plate reader (Tecan, Switzerland) or Perkin Elmer EnVision™ plate reader (Waltham, Mass.). Fluorescence polarization (mP) was calculated from the parallel (S) and perpendicular (P) fluorescence of each sample well and the analogous values for the median control well, containing only substrate (So and Po), using the following equation: Polarization (mP)=1000*(S/So−P/Po)/(S/So+P/Po).
Background: Fluorescence polarisation rises when a labelled molecule tumbles more slowly, as on binding a larger partner.

Rhesus PDE2A3, sequence (B3VTJ2 1-941): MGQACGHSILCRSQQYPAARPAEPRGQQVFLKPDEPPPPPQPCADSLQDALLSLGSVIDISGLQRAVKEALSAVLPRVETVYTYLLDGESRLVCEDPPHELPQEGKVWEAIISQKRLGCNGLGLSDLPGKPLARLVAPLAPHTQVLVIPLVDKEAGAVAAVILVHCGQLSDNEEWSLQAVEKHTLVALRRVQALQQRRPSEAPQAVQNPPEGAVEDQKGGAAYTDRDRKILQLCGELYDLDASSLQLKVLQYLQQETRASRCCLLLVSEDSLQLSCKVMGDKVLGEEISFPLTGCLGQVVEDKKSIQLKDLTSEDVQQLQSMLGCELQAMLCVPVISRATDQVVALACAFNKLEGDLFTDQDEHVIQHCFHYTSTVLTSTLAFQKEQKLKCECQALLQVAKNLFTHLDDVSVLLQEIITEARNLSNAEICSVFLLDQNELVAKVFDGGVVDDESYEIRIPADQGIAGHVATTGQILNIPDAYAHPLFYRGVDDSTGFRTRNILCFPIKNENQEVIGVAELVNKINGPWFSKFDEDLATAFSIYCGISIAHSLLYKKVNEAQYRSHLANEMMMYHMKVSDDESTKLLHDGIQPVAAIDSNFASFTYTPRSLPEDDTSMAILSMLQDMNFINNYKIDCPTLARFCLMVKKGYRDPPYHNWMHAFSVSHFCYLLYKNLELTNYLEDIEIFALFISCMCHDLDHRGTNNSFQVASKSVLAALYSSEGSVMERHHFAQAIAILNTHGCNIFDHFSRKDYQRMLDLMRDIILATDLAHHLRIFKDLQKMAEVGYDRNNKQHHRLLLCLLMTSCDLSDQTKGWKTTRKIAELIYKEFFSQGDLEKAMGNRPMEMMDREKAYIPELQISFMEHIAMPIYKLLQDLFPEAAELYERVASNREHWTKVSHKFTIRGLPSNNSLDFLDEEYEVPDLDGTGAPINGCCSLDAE
human PDE2A1, sequence (O00408 other isoform, or with tags, fused parts or gaps): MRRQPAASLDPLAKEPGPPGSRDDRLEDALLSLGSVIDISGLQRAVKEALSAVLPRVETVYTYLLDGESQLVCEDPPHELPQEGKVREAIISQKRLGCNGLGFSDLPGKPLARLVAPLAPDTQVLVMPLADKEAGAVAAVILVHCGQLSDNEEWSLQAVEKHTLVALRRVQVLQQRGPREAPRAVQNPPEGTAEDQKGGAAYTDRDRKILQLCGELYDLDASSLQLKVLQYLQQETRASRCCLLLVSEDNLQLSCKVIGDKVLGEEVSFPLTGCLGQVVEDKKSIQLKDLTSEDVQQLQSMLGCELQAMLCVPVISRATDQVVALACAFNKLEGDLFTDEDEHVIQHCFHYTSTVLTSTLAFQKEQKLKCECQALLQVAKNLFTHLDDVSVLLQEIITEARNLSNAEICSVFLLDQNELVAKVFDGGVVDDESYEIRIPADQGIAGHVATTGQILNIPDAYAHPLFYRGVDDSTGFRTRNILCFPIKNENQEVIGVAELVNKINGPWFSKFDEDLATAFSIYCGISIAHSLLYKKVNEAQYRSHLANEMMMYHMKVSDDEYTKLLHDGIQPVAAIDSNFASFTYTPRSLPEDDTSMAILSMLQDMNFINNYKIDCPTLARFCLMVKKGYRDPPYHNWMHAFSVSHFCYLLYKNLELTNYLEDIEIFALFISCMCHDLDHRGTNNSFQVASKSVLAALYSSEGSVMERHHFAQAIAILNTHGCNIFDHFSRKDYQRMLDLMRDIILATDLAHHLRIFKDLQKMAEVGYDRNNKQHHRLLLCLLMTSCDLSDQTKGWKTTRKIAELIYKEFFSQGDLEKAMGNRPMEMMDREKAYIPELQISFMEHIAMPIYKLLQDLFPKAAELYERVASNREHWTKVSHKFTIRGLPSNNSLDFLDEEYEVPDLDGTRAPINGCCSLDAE

Regarding `Cc1nc(-c2cn([C@H](C)c3ccc(C(F)(F)F)cc3C)nn2)cc(=O)[nH]1` (single isomer, unassigned) [Example 9], the Ki (commonly the equilibrium dissociation constant of an inhibitor or competing ligand from its target) in experiment [1] came to 6.9 nM; in experiment [2], 9.4 nM.
In the case of `Cc1nc(-c2cn(C(C)c3ccc(C(F)(F)F)cc3)nn2)cc(=O)[nH]1` (single isomer, unassigned) [Example 17, (R)- or (S)-2-methyl-6-(1-(1-(4-(trifluoromethyl)phenyl)ethyl)-1H-1,2,3-triazol-4-yl) pyrimidin-4(3H)-one], the inhibitory constant (Ki) was found to be 36.2 nM in experiment [1] and 44.7 nM in experiment [2].
In the same order, the values of `Cc1nc(-c2cn(C(C)c3ccc(C(F)(F)F)cc3)nn2)cc(=O)[nH]1` (single isomer, unassigned) [Example 18, (S)- or (R)-2-methyl-6-(1-(1-(4-(trifluoromethyl)phenyl)ethyl)-1H-1,2,3-triazol-4-yl) pyrimidin-4(3H)-one] are 47 nM and 54.8 nM.
For `CCc1ccc(C(C)n2cc(-c3cc(=O)[nH]c(C)n3)nn2)c(Cl)c1` (single isomer, unassigned) [Example 19, (R)- or (S)-6-(1-(1-(2-chloro-4-ethylphenyl)ethyl)-1H-1,2,3-triazol-4-yl)-2-methylpyrimidin-4(3H)-one] the same measures were 2.1 nM and 3.4 nM.
For `Cc1nc(-c2cn(C(C)c3ccc(C(F)(F)F)c(F)c3F)nn2)cc(=O)[nH]1` (single isomer, unassigned) [Example 21, (R)- or (S)-6-(1-(1-(2,3-difluoro-4-(trifluoromethyl)phenyl)ethyl)-1H-1,2,3-triazol-4-yl)-2-methylpyrimidin-4(3H)-one] the same measures were 2.6 nM and 3.9 nM.
Take `Cc1nc(-c2cn(C(C)c3ccc(C(F)(F)F)cc3F)nn2)cc(=O)[nH]1` (single isomer, unassigned) [Example 28, (S)- or (R)-6-(1-(1-(2-fluoro-4-(trifluoromethyl)phenyl)ethyl)-1H-1,2,3-triazol-4-yl)-2-methylpyrimidin-4(3H)-one]: the Ki in experiment [1] amounted to 7 nM; in experiment [2], 9 nM.
As to `Cc1nc(-c2nnc3n2CCC[C@]3(C)c2ccc(C(F)(F)F)cc2F)cc(=O)[nH]1` (single isomer, unassigned) [Example 81], the Ki in experiment [1] turned out to be 0.93 nM; in experiment [2], 1.7 nM.
In the same order, the values of `Cc1nc(-c2nnn3c2CCC[C@]3(C)c2ccc(C(F)(F)F)cc2Cl)cc(=O)[nH]1` (single isomer, unassigned) [Example 87] are 1.2 nM and 1.8 nM.
For `COc1ccc(Cc2nc(-c3nnn4c3CCC[C@]4(C)c3ccc(C(F)(F)F)cc3F)cc(=O)[nH]2)cc1` (single isomer, unassigned) [Example 89] the same measures were 0.4 nM and 0.63 nM.
In the same order, the values of `Cc1nc(-c2nnn3c2CCC3(C)c2ccc(C(F)(F)F)cc2F)cc(=O)[nH]1` (single isomer, unassigned) [Example 97, (R)- or (S)-6-(6-(2-Fluoro-4-(trifluoromethyl)phenyl)-6-methyl-5,6-dihydro-4H-pyrolo[1,2-c][1,2,3]triazol-3-yl)-2-methylpyrimidin-4(3H)-one] are 1.5 nM and 1.3 nM.
Turning to `Cc1nc(-c2cn(C(C)c3ccc(OC(F)(F)F)cc3)nn2)cc(=O)[nH]1` (stereo not shown) [Example 11, 2-methyl-6-(1-(1-(4-(trifluoromethoxy)phenyl)ethyl)-1H-1,2,3-triazol-4-yl) pyrimidin-4(3H)-one], the inhibitory constant (Ki) came out at 55.8 nM in experiment [1] and 50.4 nM in experiment [2].
In the same order, the values of `CC(c1ccc(C(F)(F)F)cc1F)n1cc(-c2cc(=O)[nH]c(Cc3ccccc3)n2)nn1` (stereo not shown) [Example 12] are 8.4 nM and 8.9 nM.
As to `Cc1nc(-c2cn(C(C)c3ccc(OC(F)(F)F)cc3F)nn2)cc(=O)[nH]1` (stereo not shown) [Example 13, 6-(1-(1-(2-fluoro-4-(trifluoromethoxy)phenyl)ethyl)-1H-1,2,3-triazol-4-yl)-2-methylpyrimidin-4(3H)-one], the Ki was 76.8 nM in experiment [1] and 98.9 nM in experiment [2].
As to `CC(c1ccc(C(F)(F)F)cc1F)n1cc(-c2cc(=O)[nH]c(CC3CC3)n2)nn1` (stereo not shown) [Example 14, 2-(cyclopropylmethyl)-6-(1-(1-(2-fluoro-4-(trifluoromethyl)phenyl)ethyl)-1H-1,2,3-triazol-4-yl)pyrimidin-4(3H)-one], the Ki in experiment [1] came out at 20.9 nM; in experiment [2], 24.9 nM.
Regarding `CC/C=C/c1nc(-c2cn(C(C)c3ccc(C(F)(F)F)cc3F)nn2)cc(=O)[nH]1` (stereo not shown) [Example 15, (E)-2-(but-1-enyl)-6-(1-(1-(2-fluoro-4-(trifluoromethyl)phenyl)ethyl)-1H-1,2,3-triazol-4-yl)pyrimidin-4(3H)-one], the inhibitory constant (Ki) in experiment [1] turned out to be 4.7 nM; in experiment [2] it was 6.5 nM.
For `Cc1nc(-c2cn(C(C)c3ccc(S(F)(F)(F)(F)F)cc3)nn2)cc(=O)[nH]1` (stereo not shown) [Example 16, 2-methyl-6-(1-(1-(4-(pentafluorosulfanyl)phenyl)ethyl)-1H-1,2,3-triazol-4-yl)pyrimidin-4(3H)-one] the same measures were 37.8 nM and 39.4 nM.
In the same order, the values of `Cc1nc(-c2cn(C3(c4ccc(C(F)(F)F)cc4Cl)CCC3)nn2)cc(=O)[nH]1` [Example 29, 6-(1-(1-(2-Chloro-4-(trifluoromethyl)phenyl)cyclobutyl)-1H-1,2,3-triazol-4-yl)-2-methylpyrimidin-4(3H)-one] are 0.53 nM and 0.63 nM.
As for `CCc1ccc(C(C)(C)n2cc(-c3cc(=O)[nH]c(C)n3)nn2)c(Cl)c1` [Example 32, 6-(1-(2-(2-chloro-4-ethylphenyl)propan-2-yl)-1H-1,2,3-triazol-4-yl)-2-methylpyrimidin-4(3H)-one], the Ki in experiment [1] came out at 1.6 nM; in experiment [2], 2.1 nM.
`Cc1nc(-c2nnn3c2COCC3c2ccc(C(F)(F)F)cc2)cc(=O)[nH]1` (stereo not shown) [Example 53, 2-methyl-6-(7-(4-(trifluoromethyl)phenyl)-6,7-dihydro-4H-[1,2,3]triazolo[5,1-c][1,4]oxazin-3-yl)pyrimidin-4(3H)-one]: in experiment [1], the Ki is 73.2 nM.
Consider `Cc1nc(-c2nnc(C(C)c3ccc(C(F)(F)F)cc3)[nH]2)cc(=O)[nH]1` (stereo not shown) [Example 60, 2-Methyl-6-(5-(1-(4-(trifluoromethyl)phenyl)ethyl)-4H-1,2,4-triazol-3-yl)pyrimidin-4(3H)-one], for which the Ki in experiment [2] turned out to be 204 nM.
Turning to `Cc1nc(-c2nnc(C(C)(C)c3ccc(C(F)(F)F)cc3F)n2C)cc(=O)[nH]1` [Example 69, 6-(5-(2-(2-Fluoro-4-(trifluoromethyl)phenyl)propan-2-yl)-4-methyl-4H-1,2,4-triazol-3-yl)-2-methylpyrimidin-4(3H)-one], the inhibitory constant (Ki) in experiment [1] amounted to 1130 nM.
Same read-out and setting: the figure for `Cc1nc(-c2ncn(C(C)c3ccc(C(F)(F)F)cc3F)n2)cc(=O)[nH]1` (stereo not shown) [Example 86, 6-(1-(1-(2-Fluoro-4-(trifluoromethyl)phenyl)ethyl)-1H-1,2,4-triazol-3-yl)-2-methylpyrimidin-4(3H)-one] is 167 nM.
